According to patent publication US12064443B2 (priority 2021, dated 2024):

Tests used:
[1] = cited from earlier work
[2] = system: Cholera toxin (CTx) challenge; conditions: mouse, in vivo

O=S(=O)([O-])OC[C@H]1O[C@@](COS(=O)(=O)[O-])(O[C@H]2O[C@H](COS(=O)(=O)[O-])[C@@H](OS(=O)(=O)[O-])[C@H](OS(=O)(=O)[O-])[C@H]2OS(=O)(=O)[O-])[C@@H](OS(=O)(=O)[O-])[C@@H]1OS(=O)(=O)[O-].[K+].[K+].[K+].[K+].[K+].[K+].[K+].[K+] [Sucrose octasulfate-potassium salt]
Solubility in water [1]: freely soluble

Sucralfate
Solubility in water [1]: poorly soluble
Effect on volume of intestinal secretion upon CTx challenge [2]: neither polyphenol nor sucralfate reduced the volume of intestinal secretion
